Drawing on patent publication US20250171437A1 (Agios Pharmaceuticals,Inc., priority 2022, published 2025), this text covers AC50 for 15 compounds.

A value given as a limit tells only on which side of the number the result lay.

The assay deals with T1, human PAH with the R408W mutation (A375 R408W cells) (Homo sapiens, UniProt P00439, R408W).
T1 construct: expressed in transfected cells
T1 sequence (P00439 1-452 R408W): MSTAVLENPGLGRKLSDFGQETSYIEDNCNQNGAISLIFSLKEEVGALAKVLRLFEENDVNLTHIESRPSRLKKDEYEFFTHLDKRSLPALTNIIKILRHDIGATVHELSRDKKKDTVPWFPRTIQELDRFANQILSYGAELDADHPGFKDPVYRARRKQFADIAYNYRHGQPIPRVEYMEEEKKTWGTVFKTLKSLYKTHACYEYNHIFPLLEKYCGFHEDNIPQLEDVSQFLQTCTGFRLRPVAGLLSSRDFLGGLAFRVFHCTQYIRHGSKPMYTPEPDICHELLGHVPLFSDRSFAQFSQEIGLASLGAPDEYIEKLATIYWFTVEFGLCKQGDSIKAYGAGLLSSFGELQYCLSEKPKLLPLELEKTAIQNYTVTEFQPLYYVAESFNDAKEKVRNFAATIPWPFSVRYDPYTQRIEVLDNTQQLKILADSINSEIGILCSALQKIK
Description: Cell Based Phenylalanine Flux Assay. The following applies: 24 hrs with compound, then 20 μM sepiapterin and 800 μM 13C9,15N-Phenylalanine for 4 hours, 13C-Tyrosine by LC-MS, average where tested multiple times. The method, boiled down:
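Phenylalanine-to-tyrosine flux is measured in A375 cells carrying stable human R408W PAH. After 24 h compound exposure, 13C9,15N-Phe (800 μM) with sepiapterin (20 μM) is supplied for 4 h and media 13C-Tyr is read by LC-MS; AC50s are binned.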

Setting [1] is: A375 cells expressing R408W PAH.

As to `O=C(c1ocnc1CF)N1CCc2[nH]cnc2[C@@H]1c1nc2cc(F)ccc2o1` [Example 180, (R)-(4-(5-fluorobenzo[d]oxazol-2-yl)-6,7-dihydro-1H-imidazo[4,5-c]pyridin-5(4H)-yl)(4-(fluoromethyl)oxazol-5-yl)methanone], where the note is “A375 R408W cells”, the AC50 lay within 1000 to 5000 nM.

On to `Nc1cc(C(=O)N2CCc3[nH]cnc3C2c2nc3cc(F)ccc3o2)n(C(F)F)n1` (stereo not drawn), for which, under setting [1], the AC50 is not below 5000 nM.

As for `O=C(c1ccnn1-c1ccccn1)N1CCc2[nH]cnc2[C@H]1c1nc2cccc(F)c2o1` [Example 729, (S)-(4-(7-fluorobenzo[d]oxazol-2-yl)-6,7-dihydro-1H-imidazo[4,5-c]pyridin-5(4H)-yl)(1-(pyridin-2-yl)-1H-pyrazol-5-yl)methanone], the AC50 (A375 R408W cells) lay in the range of 500 to 1000 nM.

Consider `Cc1ccc2oc([C@H]3c4nc[nH]c4CCN3C(=O)c3oc(-c4cnn(C)c4)nc3C(F)F)nc2c1` [Example 772, (R)-(4-(difluoromethyl)-2-(1-methyl-1H-pyrazol-4-yl)oxazol-5-yl)(4-(5-methylbenzo[d]oxazol-2-yl)-6,7-dihydro-1H-imidazo[4,5-c]pyridin-5(4H)-yl)methanone], for which the AC50 (A375 R408W cells) is 500 to 1000 nM.

In the case of `O=C(c1cnn2cc(N3CCC(F)CC3)ccc12)N1CCc2[nH]cnc2[C@H]1c1nc2c(F)cccc2o1` [Example 477, (S)-(4-(4-fluorobenzo[d]oxazol-2-yl)-6,7-dihydro-1H-imidazo[4,5-c]pyridin-5(4H)-yl)(6-(4-fluoropiperidin-1-yl)pyrazolo[1,5-a]pyridin-3-yl)methanone], the AC50 (A375 R408W cells) is not above 500 nM.

Consider `CC(C)(O)c1ncc(C(=O)N2CCc3[nH]cnc3C2c2nc3c(F)c(F)ccc3o2)o1` (stereo not drawn), for which the AC50 under setting [1] lay in the range of 1000 to 5000 nM.

Take `CN1CCN(c2nnc(C(=O)N3CCc4[nH]cnc4C3c3nc4cc(F)ccc4o3)o2)CC1` (stereo not drawn): the concentration at half-maximal activity (AC50) under setting [1] lay within 1000 to 5000 nM.

As for `O=C(CCc1cncs1)N1CCc2[nH]cnc2[C@@H]1c1nc2cccc(F)c2o1` [Example 410, (R)-1-(4-(7-fluorobenzo[d]oxazol-2-yl)-6,7-dihydro-1H-imidazo[4,5-c]pyridin-5(4H)-yl)-3-(thiazol-5-yl)propan-1-one], the AC50 (A375 R408W cells) lay within 1000 to 5000 nM.

As to `Cn1nc(C(F)(F)F)nc1C(=O)N1CCc2[nH]cnc2[C@H]1c1nc2cccc(F)c2o1` [Example 279, (S)-(4-(7-fluorobenzo[d]oxazol-2-yl)-6,7-dihydro-1H-imidazo[4,5-c]pyridin-5(4H)-yl)(1-methyl-3-(trifluoromethyl)-1H-1,2,4-triazol-5-yl)methanone], the AC50 (A375 R408W cells) was in the range of 500 to 1000 nM.

Consider `O=C(c1cnn(CC(F)(F)F)c1C(F)F)N1CCc2[nH]cnc2[C@@H]1c1nc2cc(F)ccc2o1` [Example 184, (R)-(5-(difluoromethyl)-1-(2,2,2-trifluoroethyl)-1H-pyrazol-4-yl)(4-(5-fluorobenzo[d]oxazol-2-yl)-6,7-dihydro-1H-imidazo[4,5-c]pyridin-5(4H)-yl)methanone], for which the AC50 (A375 R408W cells) lay in the range of 1000 to 5000 nM.

As to `COc1ccc(-c2nnc(C(=O)N3CCc4[nH]cnc4C3c3nc4cc(C(F)(F)F)ccc4o3)o2)nc1` (stereo not drawn), under setting [1], the AC50 is 1000 to 5000 nM.

Take `O=C(c1cnc(N2CCC(F)CC2)o1)N1CCc2[nH]cnc2C1c1nc2cc(F)ccc2o1` (stereo not drawn): the AC50 under setting [1] is not below 5000 nM.

On to `Cc1cc(F)ccc1-c1nnc(C(=O)N2CCc3[nH]cnc3[C@H]2c2nc3cc(F)ccc3o2)o1` [Example 77, (S)-(5-(4-fluoro-2-methylphenyl)-1,3,4-oxadiazol-2-yl)(4-(5-fluorobenzo[d]oxazol-2-yl)-6,7-dihydro-1H-imidazo[4,5-c]pyridin-5(4H)-yl)methanone], for which the AC50 (A375 R408W cells) is 500 to 1000 nM.

On to `CC(C)(O)c1nc(Cl)c(C(=O)N2CCc3[nH]cnc3[C@@H]2c2nc3cc(F)ccc3o2)o1` [Example 130, (R)-(4-chloro-2-(2-hydroxypropan-2-yl)oxazol-5-yl)(4-(5-fluorobenzo[d]oxazol-2-yl)-6,7-dihydro-1H-imidazo[4,5-c]pyridin-5(4H)-yl)methanone], for which the AC50 (A375 R408W cells) is not below 5000 nM.

Turning to `CC(C)(O)c1nc(C(F)F)c(C(=O)N2CCc3[nH]cnc3C2c2nc3cc(F)ccc3o2)s1` (stereo not drawn), the AC50 under setting [1] was 1000 to 5000 nM.
